How the values were obtained:
Type in all cases: functional
Parameters in all cases: unit not given here
Staphylococcus aureus = assay: The compound was evaluated for activity against strain Micrococcus aureus
Bacillus subtilis = assay: Inhibitory activity against Bacillus subtilis
Streptococcus pyogenes = assay: The compound was evaluated for activity against strain Streptococcus hemolyticus
Enterococcus faecalis = assay: The compound was evaluated for activity against strain Streptococcus faecalis

Compound	-Log C (Staphylococcus aureus)	-Log C (Bacillus subtilis)	-Log C (Streptococcus pyogenes)	-Log C (Enterococcus faecalis)
COC1/C=C/OC2(C)Oc3c(C)c(O)c4c(O)c(cc(OCC(=O)NC(C)(C)C)c4c3C2=O)NC(=O)/C(C)=C\C=C\C(C)C(O)C(C)C(O)C(C)C(OC(C)=O)C1C (stereo not given)	6.73	5.42	6.43	5.83
COC1/C=C/OC2(C)Oc3c(C)c(O)c4c(O)c(cc(OCC(=O)N(C)CCC#N)c4c3C2=O)NC(=O)/C(C)=C\C=C\C(C)C(O)C(C)C(O)C(C)C(OC(C)=O)C1C (stereo not given)	6.97	5.74	6.97	6.05
COC1/C=C/OC2(C)Oc3c(C)c(O)c4c(O)c(cc(OCC(=O)N5C(C)COCC5C)c4c3C2=O)NC(=O)/C(C)=C\C=C\C(C)C(O)C(C)C(O)C(C)C(OC(C)=O)C1C (stereo not given)	7.93	6.15	7.76	6.98
COC1/C=C/OC2(C)Oc3c(C)c(O)c4c(O)c(cc(OCC(=O)Nc5ccccc5)c4c3C2=O)NC(=O)/C(C)=C\C=C\C(C)C(O)C(C)C(O)C(C)C(OC(C)=O)C1C (stereo not given)	6.92	5.43	6.84	6.04
CCCNC(=O)COc1cc2c(O)c3c(O)c(C)c4c(c13)C(=O)C(C)(O/C=C/C(OC)C(C)C(OC(C)=O)C(C)C(O)C(C)C(O)C(C)/C=C/C=C(/C)C(=O)N2)O4 (stereo not given)	6.5	5.41	6.42	5.82
COC1/C=C/OC2(C)Oc3c(C)c(O)c4c(O)c(cc(OCC(=O)N(C)C5CCCC5)c4c3C2=O)NC(=O)/C(C)=C\C=C\C(C)C(O)C(C)C(O)C(C)C(OC(C)=O)C1C (stereo not given)	8.14	6.36	8.22	7.22
CCN(C)C(=O)COc1cc2c(O)c3c(O)c(C)c4c(c13)C(=O)C(C)(O/C=C/C(OC)C(C)C(OC(C)=O)C(C)C(O)C(C)C(O)C(C)/C=C/C=C(/C)C(=O)N2)O4 (stereo not given)	7.95	6.03	7.95	7.06
COC1/C=C/OC2(C)Oc3c(C)c(O)c4c(O)c(cc(OCC(=O)N5CCOCC5C)c4c3C2=O)NC(=O)/C(C)=C\C=C\C(C)C(O)C(C)C(O)C(C)C(OC(C)=O)C1C (stereo not given)	7.92	6.67	8.36	6.22
COC1/C=C/OC2(C)Oc3c(C)c(O)c4c(O)c(cc(OCC(=O)N(Cc5ccccc5)Cc5ccccc5)c4c3C2=O)NC(=O)/C(C)=C\C=C\C(C)C(O)C(C)C(O)C(C)C(OC(C)=O)C1C (stereo not given)	8.49	6.89	7.89	7.49
CCNC(=O)COc1cc2c(O)c3c(O)c(C)c4c(c13)C(=O)C(C)(O/C=C/C(OC)C(C)C(OC(C)=O)C(C)C(O)C(C)C(O)C(C)/C=C/C=C(/C)C(=O)N2)O4 (stereo not given)	6.99	5.4	7.5	6.2
CCCN(C)C(=O)COc1cc2c(O)c3c(O)c(C)c4c(c13)C(=O)C(C)(O/C=C/C(OC)C(C)C(OC(C)=O)C(C)C(O)C(C)C(O)C(C)/C=C/C=C(/C)C(=O)N2)O4 (stereo not given)	7.91	6.65	8.13	7.31
COC1/C=C/OC2(C)Oc3c(C)c(O)c4c(O)c(cc(OCC(=O)N5C(C)CCC5C)c4c3C2=O)NC(=O)/C(C)=C\C=C\C(C)C(O)C(C)C(O)C(C)C(OC(C)=O)C1C (stereo not given)	8.22	6.67	8.22	7.45
C=CCN(CC=C)C(=O)COc1cc2c(O)c3c(O)c(C)c4c(c13)C(=O)C(C)(O/C=C/C(OC)C(C)C(OC(C)=O)C(C)C(O)C(C)C(O)C(C)/C=C/C=C(/C)C(=O)N2)O4 (stereo not given)	8.22	6.67	8.44	7.22
COC1/C=C/OC2(C)Oc3c(C)c(O)c4c(O)c(cc(OCC(=O)N(CCCl)CCCl)c4c3C2=O)NC(=O)/C(C)=C\C=C\C(C)C(O)C(C)C(O)C(C)C(OC(C)=O)C1C (stereo not given)	7.24	6.38	7.47	5.77
CCCN(CC)C(=O)COc1cc2c(O)c3c(O)c(C)c4c(c13)C(=O)C(C)(O/C=C/C(OC)C(C)C(OC(C)=O)C(C)C(O)C(C)C(O)C(C)/C=C/C=C(/C)C(=O)N2)O4 (stereo not given)	8.01	6.35	8.22	7.22
COC1/C=C/OC2(C)Oc3c(C)c(O)c4c(O)c(cc(OCC(=O)N(C)C(C)(C)C)c4c3C2=O)NC(=O)/C(C)=C\C=C\C(C)C(O)C(C)C(O)C(C)C(OC(C)=O)C1C (stereo not given)	8.62	6.66	8.31	7.62
COC1/C=C/OC2(C)Oc3c(C)c(O)c4c(O)c(cc(OCC(=O)N5CCCC5)c4c3C2=O)NC(=O)/C(C)=C\C=C\C(C)C(O)C(C)C(O)C(C)C(OC(C)=O)C1C (stereo not given)	7.26	5.73	8.21	6.34
COC1/C=C/OC2(C)Oc3c(C)c(O)c4c(O)c(cc(OCC(=O)N5CCCCC5)c4c3C2=O)NC(=O)/C(C)=C\C=C\C(C)C(O)C(C)C(O)C(C)C(OC(C)=O)C1C (stereo not given)	8.01	6.04	8.22	6.92

Compound	-Log C (Staphylococcus aureus)	-Log C (Bacillus subtilis)	-Log C (Streptococcus pyogenes)	-Log C (Enterococcus faecalis)
COC1/C=C/OC2(C)Oc3c(C)c(O)c4c(O)c(cc(OCC(=O)Nc5ccc(Br)cc5)c4c3C2=O)NC(=O)/C(C)=C\C=C\C(C)C(O)C(C)C(O)C(C)C(OC(C)=O)C1C (stereo not given)	6.48	5.78	6.66	6.56
CCCN(CCC)C(=O)COc1cc2c(O)c3c(O)c(C)c4c(c13)C(=O)C(C)(O/C=C/C(OC)C(C)C(OC(C)=O)C(C)C(O)C(C)C(O)C(C)/C=C/C=C(/C)C(=O)N2)O4 (stereo not given)	8.15	6.53	8.15	7.15
COC1/C=C/OC2(C)Oc3c(C)c(O)c4c(O)c(cc(OCC(=O)N5CCC(C)CC5)c4c3C2=O)NC(=O)/C(C)=C\C=C\C(C)C(O)C(C)C(O)C(C)C(OC(C)=O)C1C (stereo not given)	8.22	6.36	7.92	7.27
COC1/C=C/OC2(C)Oc3c(C)c(O)c4c(O)c(cc(OCC(=O)N(C)C)c4c3C2=O)NC(=O)/C(C)=C\C=C\C(C)C(O)C(C)C(O)C(C)C(OC(C)=O)C1C (stereo not given)	7.12	5.72	7.89	6.02
CCCCN(C)C(=O)COc1cc2c(O)c3c(O)c(C)c4c(c13)C(=O)C(C)(O/C=C/C(OC)C(C)C(OC(C)=O)C(C)C(O)C(C)C(O)C(C)/C=C/C=C(/C)C(=O)N2)O4 (stereo not given)	8.44	6.35	8.62	7.22
COC1/C=C/OC2(C)Oc3c(C)c(O)c4c(O)c(cc(OCC(=O)N(c5ccccc5)c5ccccc5)c4c3C2=O)NC(=O)/C(C)=C\C=C\C(C)C(O)C(C)C(O)C(C)C(OC(C)=O)C1C (stereo not given)	8.65	7.05	7.55	7.65
COC1/C=C/OC2(C)Oc3c(C)c(O)c4c(O)c(cc(OCC(=O)NC(C)C)c4c3C2=O)NC(=O)/C(C)=C\C=C\C(C)C(O)C(C)C(O)C(C)C(OC(C)=O)C1C (stereo not given)	6.7	5.41	7.12	5.9
COC1/C=C/OC2(C)Oc3c(C)c(O)c4c(O)c(cc(OCC(=O)N(C)C5CCCCC5)c4c3C2=O)NC(=O)/C(C)=C\C=C\C(C)C(O)C(C)C(O)C(C)C(OC(C)=O)C1C (stereo not given)	8.15	6.68	7.98	7.53
COC1/C=C/OC2(C)Oc3c(C)c(O)c4c(O)c(cc(OCC(=O)N(C)CCO)c4c3C2=O)NC(=O)/C(C)=C\C=C\C(C)C(O)C(C)C(O)C(C)C(OC(C)=O)C1C (stereo not given)	6.93	5.23	7.15	5.85
CNC(=O)COc1cc2c(O)c3c(O)c(C)c4c(c13)C(=O)C(C)(O/C=C/C(OC)C(C)C(OC(C)=O)C(C)C(O)C(C)C(O)C(C)/C=C/C=C(/C)C(=O)N2)O4 (stereo not given)	6.68	7.11	5.09	5.89
COC1/C=C/OC2(C)Oc3c(C)c(O)c4c(O)c(cc(OCC(=O)N5CCOCC5)c4c3C2=O)NC(=O)/C(C)=C\C=C\C(C)C(O)C(C)C(O)C(C)C(OC(C)=O)C1C (stereo not given)	6.44	5.74	7.26	5.84
COC1/C=C/OC2(C)Oc3c(C)c(O)c4c(O)c(cc(OCC(N)=O)c4c3C2=O)NC(=O)/C(C)=C\C=C\C(C)C(O)C(C)C(O)C(C)C(OC(C)=O)C1C (stereo not given)	5.7	4.78	6.62	4.91
COC1/C=C/OC2(C)Oc3c(C)c(O)c4c(O)c(cc(OCC(=O)N(CC(C)C)CC(C)C)c4c3C2=O)NC(=O)/C(C)=C\C=C\C(C)C(O)C(C)C(O)C(C)C(OC(C)=O)C1C (stereo not given)	8.86	7.28	8.16	7.86
CCCCN(CC)C(=O)COc1cc2c(O)c3c(O)c(C)c4c(c13)C(=O)C(C)(O/C=C/C(OC)C(C)C(OC(C)=O)C(C)C(O)C(C)C(O)C(C)/C=C/C=C(/C)C(=O)N2)O4 (stereo not given)	8.62	6.27	8.15	7.62
COC1/C=C/OC2(C)Oc3c(C)c(O)c4c(O)c(cc(OCC(=O)N(C)Cc5ccccc5)c4c3C2=O)NC(=O)/C(C)=C\C=C\C(C)C(O)C(C)C(O)C(C)C(OC(C)=O)C1C (stereo not given)	8.24	6.37	8.16	7.09
COC1/C=C/OC2(C)Oc3c(C)c(O)c4c(O)c(cc(OCC(=O)Nc5ccc(Cl)cc5)c4c3C2=O)NC(=O)/C(C)=C\C=C\C(C)C(O)C(C)C(O)C(C)C(OC(C)=O)C1C (stereo not given)	6.54	5.64	6.86	6.39
CCN(C(=O)COc1cc2c(O)c3c(O)c(C)c4c(c13)C(=O)C(C)(O/C=C/C(OC)C(C)C(OC(C)=O)C(C)C(O)C(C)C(O)C(C)/C=C/C=C(/C)C(=O)N2)O4)c1ccccc1 (stereo not given)	8.46	6.37	8.16	7.33

From ChEMBL document CHEMBL1121427, “Decomposition of pharmacological activity indices into mutually independent components using principal component analysis” (J Med Chem, 1980)
